Results from ChEMBL document CHEMBL1201862, “PubChem BioAssay data set” (2004).
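Grown in 96-well plates, cells were treated for 48 hours with each compound at five concentrations. Insufficient inhibition: endpoint recorded as highest concentration tested. The concentration for 50% growth inhibition is given as GI50.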 The source made the active and inactive calls. Cut-off read from the data, not from the text of the source: active = GI50 up to about 1.1 µM and inactive = higher.

Key:
Test in all cases: growth of human tumour cells (NCI), 48 h
DU-145 = tested on: DU-145
RXF 393 = tested on: RXF 393
UACC-257 = tested on: UACC-257
MDA-N = tested on: MDA-N
UO-31 = tested on: UO-31
NCI-H522 = tested on: NCI-H522
MDA-MB-231 = tested on: MDA-MB-231
Malme-3M = tested on: Malme-3M
A498 = tested on: A498
786-0 = tested on: 786-0
SK-MEL-5 = tested on: SK-MEL-5
SK-MEL-2 = tested on: SK-MEL-2
MOLT-4 = tested on: MOLT-4
OVCAR-5 = tested on: OVCAR-5
SK-MEL-28 = tested on: SK-MEL-28
SW-620 = tested on: SW-620
SK-OV-3 = tested on: SK-OV-3
IGROV-1 = tested on: IGROV-1
U-251 = tested on: U-251
NCI-H226 = tested on: NCI-H226

Structure (SMILES)	GI50 (DU-145)	GI50 (RXF 393)	GI50 (UACC-257)	GI50 (MDA-N)	GI50 (UO-31)	GI50 (NCI-H522)	GI50 (MDA-MB-231)	GI50 (Malme-3M)	GI50 (A498)	GI50 (786-0)	GI50 (SK-MEL-5)	GI50 (SK-MEL-2)	GI50 (MOLT-4)	GI50 (OVCAR-5)	GI50 (SK-MEL-28)	GI50 (SW-620)	GI50 (SK-OV-3)	GI50 (IGROV-1)	GI50 (U-251)	GI50 (NCI-H226)
O=C(CCN1CCCCC1)Nc1ccc2c(c1)C(=O)c1ccc(NC(=O)CCN3CCCCC3)cc1C2=O	14 µM (inactive)	3.85 µM (inactive)	16.3 µM (inactive)	1.65 µM (inactive)	12.4 µM (inactive)	16.9 µM (inactive)	2.04 µM (inactive)	10.5 µM (inactive)	13.7 µM (inactive)	1.61 µM (inactive)	5.71 µM (inactive)	5.16 µM (inactive)	3.83 µM (inactive)	16.5 µM (inactive)	17.5 µM (inactive)	2.1 µM (inactive)	13.2 µM (inactive)	3.61 µM (inactive)	4.98 µM (inactive)	15.6 µM (inactive)
NC(=O)c1nnsc1NC=O	> 100 µM (inactive)	> 100 µM (inactive)	> 100 µM (inactive)	> 100 µM (inactive)	> 100 µM (inactive)	> 100 µM (inactive)	> 100 µM (inactive)	> 100 µM (inactive)	> 100 µM (inactive)	> 100 µM (inactive)	> 100 µM (inactive)	> 100 µM (inactive)	> 100 µM (inactive)	> 100 µM (inactive)	> 100 µM (inactive)	> 100 µM (inactive)	> 100 µM (inactive)	> 100 µM (inactive)	> 100 µM (inactive)	> 100 µM (inactive)
O=C1CC(NC2CC(=O)c3c(Br)sc(Br)c32)c2c(Br)sc(Br)c21 (stereo unspecified)	4.58 µM (inactive)	3.38 µM (inactive)	2.03 µM (inactive)	2.06 µM (inactive)	2.24 µM (inactive)	1.81 µM (inactive)	3.42 µM (inactive)	2.29 µM (inactive)	18.6 µM (inactive)	1.51 µM (inactive)	5.96 µM (inactive)	3.51 µM (inactive)	2.26 µM (inactive)	20.2 µM (inactive)	7.85 µM (inactive)	2.08 µM (inactive)	17.8 µM (inactive)	2.99 µM (inactive)	1.82 µM (inactive)	17.4 µM (inactive)
Cc1ccc(/N=C2N=C(Cl)/C(=C\c3ccco3)N\2)cc1	> 100 µM (inactive)	> 100 µM (inactive)	> 100 µM (inactive)	> 100 µM (inactive)	> 100 µM (inactive)	> 100 µM (inactive)	> 100 µM (inactive)	> 100 µM (inactive)	> 100 µM (inactive)	> 100 µM (inactive)	> 100 µM (inactive)	> 100 µM (inactive)	> 91.8 µM (inactive)	> 100 µM (inactive)	> 100 µM (inactive)	> 100 µM (inactive)	> 100 µM (inactive)	> 100 µM (inactive)	> 100 µM (inactive)	> 100 µM (inactive)
Cc1nc2ccc(S(=O)(=O)O)cc2c(=O)n1-c1ccc(C(=O)NN2C(=O)C(Cl)C2c2ccccc2O)cc1 (stereo unspecified)	> 100 µM (inactive)	> 100 µM (inactive)	> 100 µM (inactive)	> 100 µM (inactive)	> 100 µM (inactive)	> 100 µM (inactive)	> 100 µM (inactive)	> 100 µM (inactive)	> 100 µM (inactive)	> 100 µM (inactive)	> 100 µM (inactive)	> 100 µM (inactive)	> 100 µM (inactive)	> 100 µM (inactive)	> 100 µM (inactive)	> 100 µM (inactive)	> 100 µM (inactive)	> 100 µM (inactive)	> 100 µM (inactive)	> 100 µM (inactive)
CCOC(=O)/C(=C\NC(=S)Nc1ccc(OCC)cc1)C(=O)c1ccccc1	> 100 µM (inactive)	> 100 µM (inactive)	> 100 µM (inactive)	> 100 µM (inactive)	–	> 100 µM (inactive)	> 100 µM (inactive)	> 100 µM (inactive)	20.7 µM (inactive)	> 100 µM (inactive)	> 100 µM (inactive)	> 100 µM (inactive)	> 100 µM (inactive)	> 100 µM (inactive)	> 100 µM (inactive)	> 100 µM (inactive)	> 100 µM (inactive)	> 100 µM (inactive)	> 100 µM (inactive)	> 100 µM (inactive)
O=C1c2cccc3cc([N+](=O)[O-])cc(c23)C(=O)N1CCCN1CCN(CCCNc2ccc3ncn4c5ccccc5c(=O)c2c34)CC1	< 0.005 µM (active)	< 0.005 µM (active)	< 0.005 µM (active)	< 0.005 µM (active)	< 0.005 µM (active)	< 0.005 µM (active)	< 0.005 µM (active)	< 0.005 µM (active)	< 0.005 µM (active)	< 0.005 µM (active)	–	0.0191 µM (active)	< 0.005 µM (active)	0.00867 µM (active)	0.0562 µM (active)	< 0.005 µM (active)	0.0198 µM (active)	< 0.005 µM (active)	< 0.005 µM (active)	< 0.005 µM (active)
O=C1C/C(=C\O)C(=O)c2ccccc2N1	> 100 µM (inactive)	> 100 µM (inactive)	> 100 µM (inactive)	> 100 µM (inactive)	> 100 µM (inactive)	> 100 µM (inactive)	> 100 µM (inactive)	> 100 µM (inactive)	> 100 µM (inactive)	> 100 µM (inactive)	> 100 µM (inactive)	> 100 µM (inactive)	> 100 µM (inactive)	> 100 µM (inactive)	> 100 µM (inactive)	–	> 100 µM (inactive)	> 100 µM (inactive)	> 100 µM (inactive)	> 100 µM (inactive)
CCCC(=O)OCC1OC(n2cc(F)c(=O)[nH]c2=O)C(F)C1O (stereo unspecified)	5.5 µM (inactive)	> 100 µM (inactive)	> 59.7 µM (inactive)	14.9 µM (inactive)	74.8 µM (inactive)	> 75 µM (inactive)	38.1 µM (inactive)	> 80 µM (inactive)	8.39 µM (inactive)	30.6 µM (inactive)	> 40.4 µM (inactive)	> 100 µM (inactive)	> 35.6 µM (inactive)	> 100 µM (inactive)	> 100 µM (inactive)	> 100 µM (inactive)	> 74 µM (inactive)	> 76.7 µM (inactive)	10.8 µM (inactive)	99.3 µM (inactive)
CC1=NN(c2nc(N)nc(/C(C#N)=C/c3cccn3-c3cc(Cl)cc(Cl)c3)n2)C(C)(C)C1	> 100 µM (inactive)	> 100 µM (inactive)	> 100 µM (inactive)	> 100 µM (inactive)	> 100 µM (inactive)	> 100 µM (inactive)	41.2 µM (inactive)	> 100 µM (inactive)	> 100 µM (inactive)	> 100 µM (inactive)	> 100 µM (inactive)	> 100 µM (inactive)	–	> 100 µM (inactive)	> 100 µM (inactive)	> 100 µM (inactive)	> 100 µM (inactive)	> 100 µM (inactive)	7.82 µM (inactive)	> 100 µM (inactive)
